Measurements taken from patent US7763662B2, “Use of C2-substituted indan-1-ol systems for preparing medicaments for the prophylaxis or treatment of obesity” (Sanofi-Aventis Deutschland GmbH, priority 2001, dated 2010).

Tests used:
female NMRI mice = assay: Anorectic action: cumulative evaporated milk consumption after 24 h feed removal; assay type: in vivo; conditions: ip or po (route not specified), N=5; for Reduction in cumulative milk consumption as % of the control: compared with vehicle-treated control animals; for cumulative milk consumption by treated animals: milk offered 30 min after administration, monitored for 7 hours
Experimental: The activity of the compounds was assayed as follows:
The anorectic action was tested on female NMRI mice. After removal of feed for 24 hours, the preparation to be tested was administered intraperitoneally (ip) or by gavage (po). The animals were housed singly and, with free access to drinking water, they were offered evaporated milk 30 minutes after administration of the preparation. The consumption of evaporated milk was determined and the general behavior of the animals was monitored every half an hour for 7 hours. The measured milk consumption was compared to that of vehicle-treated control animals.

melting point [°C] | SMILES | Reduction in cumulative milk consumption as % of the control (female NMRI mice; dose 20 mg/kg) | cumulative milk consumption by treated animals (female NMRI mice; dose 20 mg/kg) | Reduction in cumulative milk consumption as % of the control (female NMRI mice; dose 50 mg/kg) | cumulative milk consumption by treated animals (female NMRI mice; dose 50 mg/kg)
197.1 | CSC1Cc2cc(Cl)ccc2C1O (stereo not shown) (hydrate or solvate) [Example 4, 5-Chloro-2-methylsulfanylindan-1-ol] |  |  |  | 
163 | CS(=O)(=O)C1Cc2cc(Cl)ccc2C1O (stereo not shown) [Example 1, 5-Chloro-2-methylsulfonylindan-1-ol] | 50 % of the control | 5/1.94 ml |  | 
145 | CCS(=O)(=O)C1Cc2cc(Cl)ccc2C1O (stereo not shown) [Example 3, 5-Chloro-2-ethanesulfonylindan-1-ol] |  |  |  | 
 | CSC1Cc2cc(Cl)ccc2C1O (stereo not shown) [Example 4, 5-Chloro-2-methylsulfanylindan-1-ol] |  |  | 85 % of the control | 5/0.70 ml
